Assay results: patent US11857635B2, “Linker compound, polyethylene glycol-linker conjugate and derivative thereof and polyethylene glycol-linker-drug conjugate” (JENKEM TECHNOLOGY CO., LTD. (TIANJIN), priority 2017, dated 2024)

System: HCT116 tumor
Assay: Tumor growth inhibition in HCT116 tumor heterotopic transplantation mouse model
Format: in vivo
Details: HCT116 subcutaneous tumor in mice, FIG. 6
Description: The experiment was carried out to detect a tumor growth inhibition effect of a drug on the HCT116 tumor heterotopic transplantation mouse model.
G2: positive drug adriamycin (commercially available); and
G3: 4arm PEG-L5-Dox (prepared in Example 22).
An original culture solution was removed by suction after HCT116 cells (commercially available) were received, and 10 mL of fresh culture solution was added. The cells were collected and passaged when 90% of the cells were converged. After the culture solution was removed, 10 ml of EDTA/PBS solution was added and placed at room temperature for 5 minutes, and then the EDTA/PBS solution was removed by suction. […] The cells was counted with a counting plate and diluted with DMEM containing 10% FBS. […]
The cell suspension was changed in advance when it was detected that 80% of the cells were converged on the inoculation day of the cells. […] The cells were counted with a counting plate and diluted with PBS to a concentration of 2*10^7 cells/mL, and then the cells were placed on ice until inoculation.
HCT116 cells were subcutaneously inoculated in a right front axilla of a mouse. […] Tumor volumes were measured twice a week after inoculation, and when an average tumor volume reached 100 to 200 mm^3, 18 mice with similar tumor sizes were selected and randomly divided into 3 groups with 6 mice in each group. […]

`COc1cccc2c1C(=O)c1c(O)c3c(c(O)c1C2=O)C[C@@](O)(C(=O)CO)C[C@@H]3O[C@H]1C[C@H](N)[C@H](O)[C@H](C)O1` [adriamycin] was tested, and the Anti-tumor effect was “obvious anti-tumor effects”.
